Data published in patent publication US10413583B2, “Synthetic substrates for enzymes that catalyze reactions of modified cysteines and related methods” (The University of Chicago, priority 2016, dated 2019).

What was measured:
[1] = tested on: HEPG2 cells; experiment: Fluorescence imaging of RDP-1 with HEPG2 cells (PalmB, palmitate); format: cell-based, human; settings: 40 μM PalmB 30 min, 1 μM RDP-1
Experimental: HEPG2 were plated with […] of DMEM (Gibco, Gaithersburg, Md., United States of America; High Glucose, Glutamax, 10% FBS) a four well chambered imaging dish (D35C4-20-1.5-N, Cellvis, Mountain View, Calif., United States of America) which were precoated with 4 μg Poly-D-lysine (30-70 KDa, Alfa Aesar, Haverhill, Mass., United States of America) for 2 h at room temperature or overnight at 4° C. and grown to ca. 80% confluence prior to imaging. 30 min before the addition of the RDP, the cell culture media was removed and cells were washed with 500 μL of serum-free DMEM (Gibco, Gaithersburg, Md., United States of America; High Glucose, Glutamax, no FBS). The media was then replaced with 500 μL of serum-free DMEM containing 100 nM Mitotracker Deep Red (Thermo Fisher Scientific, Waltham, Mass., United States of America) to assist in focusing and processing) and either 0.1% DMSO carrier as a control or Palm B in DMSO and incubated for 30 min at 37° C. and 5% CO2. The media was removed, the cells were washed with 500 μL of Live Cell Imaging Solution (Thermo Fisher Scientific, Waltham, Mass., United States of America), and 500 μL of 1 μM RDP-1 along with the Palm B or DMSO as control in Live Cell Imaging Solution was added to each well. […]

[2] = Log P analysis of DPP-1/4/5; format: physicochemical; settings: 1-octanol / Hepes buffer
Experimental: 2 μL of 1 mM of DPP-1/4/5 was dissolved in 500 μL of Hepes buffer in two 1.5 mL tubes. To one tube, 500 μL of 1-octanol was added and the tube was shaken for 10 min followed by keeping it undisturbed for 10 min. Then, 10 μL of aqueous phase from each tube was placed in a 96 well plate reader. To this, 190 μL of 1M NaOH was added and fluorescence intensities (λex 490/20 nm, λem 545/20 nm, Gain 80, read from bottom with height 4.5 mm, and sweep method) were measured at 15 second time intervals for 1 hr at room temperature. The fluorescence read out at saturation was used to calculate Log P values by following equation: log P=log(Foct/Faq) Foct=Ftotal−Faq where: Foct=Fluorescence of 1-octanol fraction; Faq=Fluorescence of the aqueous fraction after treatment with 1-octanol, and Ftotal=Fluorescence of the aqueous fraction with no treatment with 1-octanol.

[3] = molecular target: T1, APT1 (Homo sapiens, UniProt O75608); experiment: Enzyme kinetics analysis of DPP-5 with APT1; format: biochemical; settings: APT1 50 nM
T1 construct: His-tag; made in house; host or cells: E. coli ROSETTA DE3
T1 sequence (O75608 whole entry): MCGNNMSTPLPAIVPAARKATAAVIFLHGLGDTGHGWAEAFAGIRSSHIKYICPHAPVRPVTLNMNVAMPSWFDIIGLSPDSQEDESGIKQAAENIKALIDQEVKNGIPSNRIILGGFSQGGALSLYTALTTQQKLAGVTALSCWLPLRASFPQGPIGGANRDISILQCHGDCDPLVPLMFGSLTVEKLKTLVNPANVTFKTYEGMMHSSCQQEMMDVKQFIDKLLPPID
Experimental: (§1) 150 μL of 1 M DTT in HEPES buffer was added to different concentrations of 150 μL DPP-5 and then the stable fluorescence intensities of totally deacylated product were measured by the methods described above. Fluorescence intensity of per molar deacylated-product was then calculated by linear least-squares fitting of plots of fluorescence vs. concentration. For Michaelis-Menten constant, in vitro kinetics curves were obtained for different final concentrations of DPP-5 in HEPES with 50 nM APT1 or APT2. The fluorescence intensities measured were then normalized to the concentrations of product by fluorescence-intensity-permolar-product. A Lineweaver-Burk plot was used to calculate the Michaelis constant, KM, and the maximum velocity, Vmax, which is proportional to kcat by concentration of APT1 or APT2. All fits have R^2 values of >0.99.

[4] = molecular target: T2, APT2 (Homo sapiens, UniProt O95372); experiment: Enzyme kinetics analysis of DPP-5 with APT2; format: biochemical; settings: APT2 50 nM
T2 construct: His-tag; made in house; host or cells: E. coli ROSETTA DE3
T2 sequence (O95372 whole entry): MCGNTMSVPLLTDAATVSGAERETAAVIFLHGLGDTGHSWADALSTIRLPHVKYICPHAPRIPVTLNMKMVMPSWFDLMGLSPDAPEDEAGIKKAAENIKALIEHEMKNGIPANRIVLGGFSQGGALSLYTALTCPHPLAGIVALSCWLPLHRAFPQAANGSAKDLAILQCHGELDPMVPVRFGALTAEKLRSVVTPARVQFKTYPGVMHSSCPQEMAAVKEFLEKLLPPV
Experimental: as §1

SMILES | decrease in deacylation of RDP-1 [1] | LogP [2] | Kcat [3] | Km ([3]; Lineweaver-Burk) | Kcat [4] | Km ([4]; Lineweaver-Burk)
CCCCCCCCCC[C@@H]1C(=O)O[C@H]1CCc1ccc(OC)c(OC)c1 [PalmB, palmostatin B] | about 60% |  |  |  |  | 
CCCCCCCCCCCCCCCC(=O)SC[C@@H](C(=O)NC)N(C)C(=O)Oc1ccc2c(c1)Oc1cc(N3CCN(C(=O)CCC(=O)O)CC3)ccc1C21OC(=O)c2ccccc21 (stereo partly drawn) [DPP-5] |  | 0.79 | 0.044 s⁻¹ | 1.6 µM | 0.066 s⁻¹ | 2.1 µM
